Tests used:
[1] = tested on: B. subtilis delypgA (pBMV4); test: paper disk growth inhibition on agar medium, B. subtilis delypgA (pBMV4); assay type: cell-based, Bacillus subtilis; conditions: 50 μl of 5 μg/ml fosmidomycin on paper disk, 37° C. overnight
Protocol: The B. subtilis delypgA (pBMV4) was subjected to shaking culturing at 37° C. overnight in 5 ml of LB liquid medium containing 3.4 μg/ml chloramphenicol.
One thousandth amount of the above culture solution was added into Nutrient Broth “Eiken” (Eiken Chemical Co., Ltd.) containing 3.4 μg/ml chloramphenicol to prepare an agar medium.
One thousandth amount of the above culture solution was added into Nutrient Broth “Eiken” containing 1 mM IPTG, 3.4 μg/ml chloramphenicol and 0.02% mevalonic acid to prepare an agar medium. The gene on the pBMV4 is expressed only in the presence of IPTG
50 μl of aqueous solution of 5 μg/ml fosmidomycin was dropped on a paper disk, and then the paper disk was placed on the above two types of agar mediums, followed by culturing at 37° C. overnight.

[2] = tested on: B. subtilis 168 (pBMV4); test: paper disk growth inhibition on agar medium, B. subtilis 168 (pBMV4); assay type: cell-based, Bacillus subtilis; conditions: 50 μl of 5 μg/ml fosmidomycin on paper disk, 37° C. overnight
Protocol: The B. subtilis 168 (pBMV4) was subjected to shaking culturing at 37° C. overnight in 5 ml of LB liquid medium containing 3.4 μg/ml chloramphenicol. […]
The gene on the pBMV4 is expressed only in the presence of IPTG 50 μl of aqueous solution of 5 μg/ml fosmidomycin was dropped on a paper disk, and then the paper disk was placed on the above two types of agar mediums, followed by culturing at 37° C. overnight.

[3] = medium to which mevalonic acid and IPTG were added
[4] = medium to which mevalonic acid and IPTG were not added

O=CN(O)CCCP(=O)(O)O [fosmidomycin]
growth inhibition ring [1, 3]: not observed
growth inhibition ring [1, 4]: observed
growth inhibition ring [2, 3]: not observed
growth inhibition ring [2, 4]: observed
